Experimental data as given in publication PMC4389225, “Triaminopyrimidine is a fast-killing and long-acting antimalarial clinical candidate” (Nature Communications, 2015).

Key:
GPCR [1] = assay: Secondary pharmacology panel, target #10
Muscarinic M2 receptor = target: T1, Muscarinic M2 receptor (Homo sapiens, UniProt P08172); assay: Muscarinic M2 receptor radioligand binding (CEREP)
T1 construct: purchased CEREP, France (external assay service)
T1 sequence (P08172 1-466): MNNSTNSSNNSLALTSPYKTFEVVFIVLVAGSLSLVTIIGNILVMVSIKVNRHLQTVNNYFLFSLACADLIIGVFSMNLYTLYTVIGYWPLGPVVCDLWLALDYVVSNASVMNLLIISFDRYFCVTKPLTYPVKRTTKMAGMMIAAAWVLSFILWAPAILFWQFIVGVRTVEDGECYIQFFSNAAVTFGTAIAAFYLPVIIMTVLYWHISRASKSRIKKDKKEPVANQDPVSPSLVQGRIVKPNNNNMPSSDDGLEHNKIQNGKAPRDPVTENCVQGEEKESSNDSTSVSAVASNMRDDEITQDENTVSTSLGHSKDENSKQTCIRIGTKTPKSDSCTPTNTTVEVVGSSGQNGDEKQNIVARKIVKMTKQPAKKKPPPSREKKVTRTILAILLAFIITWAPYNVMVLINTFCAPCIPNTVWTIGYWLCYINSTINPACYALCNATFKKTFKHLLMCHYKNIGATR
Procedure: An in vitro pharmacological profiling panel was specifically designed for the detection of potential high- risk clinical adverse drug reactions. The panel comprised of 26 diverse targets (6 enzymes, 2 transporters, 9 G-protein-coupled receptors (GPCRs), 5 ion channels along with hERG, M2, alpha1A and AchE) and was conduced externally by CEREP, France […]. […] Detailed methodology for in vitro pharmacological profiling assays provided by CEREP can be found at http://www.cerep.fr, with specific reference to the AChE (cat. no. 0363), Muscarinic M1 receptor (cat. no. 0091) and Adrenergic α1A receptor (cat. no. 2338) assays. For enzyme and kinase assays, the results were expressed as a percent inhibition of control-specific activity obtained in the presence of the test compound. The IC50 values (concentration causing a half-maximal inhibition of control-specific activity) and Hill coefficients (nH) were determined by nonlinear regression analysis of the inhibition/concentration–response curves using Hill equation curve fitting as described earlier.
For radioligand binding assays, the results are expressed as % inhibition of control-specific binding obtained in the presence of the test compounds. The IC50 values (concentration causing a half-maximal inhibition of control-specific binding) and Hill coefficients (nH) were determined by nonlinear regression analysis of the competition curves generated with mean replicate values using Hill equation curve fitting. The inhibition constants (Ki) were subsequently calculated by applying the Cheng Prusoff equation[38].

GPCR [2] = assay: Secondary pharmacology panel, target #9
GPCR [3] = assay: Secondary pharmacology panel, target #12
Transporter = assay: Secondary pharmacology panel, target #14
[4] = Plasma protein binding, human; details: for fraction unbound: human, plasma
GPCR [5] = assay: Secondary pharmacology panel, target #8
Enzyme = assay: Secondary pharmacology panel, target #24
Dd2 PI4K Cpd 1 = assay: [3H]-hypoxanthine incorporation assay, Dd2 PI4K Cpd 1 resistant; assay type: cell-based; details: Plasmodium falciparum
Procedure: Supplementary Table 3: Compound 9 and 12 retain their activity against Pf strains harbouring mutations to novel antimalarial agents in clinical development. Compound 9 and 12 were tested for their antiplasmodial activity against a panel of Pf strains known to harbour mutations conferring resistance to novel agents under clinical development. Parasite growth inhibition is measured using the [3H]-hypoxanthine incorporation assay. IC50s are established for each strain (n ≥2) and compared to the IC50 of Dd2 (standard pan-resistant […]

Dd2 = assay: [3H]-hypoxanthine incorporation assay, Dd2; assay type: cell-based, Plasmodium falciparum; details: Plasmodium falciparum, DD2
Procedure: 9 and 12 were tested for their antiplasmodial activity against a panel of Pf strains known to harbour mutations conferring resistance to novel agents under clinical development. Parasite growth inhibition is measured using the [3H]-hypoxanthine incorporation assay. IC50s are established for each strain (n ≥2) and compared to the IC50 of Dd2 (standard pan-resistant

Hepatocyte Clint, rat = assay type: in vitro ADME; details: for Predicted blood CL: Rat
Text: (§1) Supplementary Note 5: Prediction of human clearance for compound 12 by IVIVE.
(§2) Human clearance (CL) was predicted by in vitro-in vivo extrapolation (IVIVE) from the in vitro Clint in human hepatocytes6. In vitro Clint was scaled to in vivo Clint as follows:
(§3) Clint in vivo = Clint in vitro * scaling factors * fublood/fuinc
(§4) The liver weights used for scaling were 40, 32 and 24 g/kg body weight in rat, dog and human respectively. Hepatocellularity used for scaling was 163, 169 and 120 (X 106) cells/g liver in rat, dog and human respectively. Free fraction in blood was calculated as fuplasma /Blood:Plasma (BP) ratio. BP ratio and free fraction in the hepatocyte incubation mix, fuinc, were measured in vitro. Slope and intercept from the linear regression analysis of IVIVC for a large number of AstraZeneca compounds was applied for final correction in the scaled in vivo Clint. A well stirred model was used for CL prediction.
(§5) Where Qh is the liver blood flow. The values of Qh in rat, dog and human are 72, 55 and 20 mL.min-1kg-1 in rat, dog and human, respectively. In vitro parameters, observed in vivo CL and predicted CL are shown in supplementary Table 10. […]
(§6) (also on this page, place not known: in vivo in vivo CLintQ CLintQCL Predicted predicted predicted h h + ×=)
(§7) (1 picture or pasted object on this page, not shown here)

Dd2-6R F4 D4 = assay: SYBR green growth assay, Dd2-6R F4 D4; details: Plasmodium falciparum
Dd2-6R F2 B5 = assay: SYBR green growth assay, Dd2-6R F2 B5
Dd2-6R F2 C5 = assay: SYBR green growth assay, Dd2-6R F2 C5; details: Plasmodium falciparum
[6] = test system: Pf male and female gametes; assay: Pf male and female dual gamete assay; details: Plasmodium falciparum, read-out: inhibition in Pf male and female dual gamete assay
Hepatocyte Clint, dog = assay type: in vitro ADME; details: for Predicted blood CL: Dog
Text: as §1, §2, §3, §4, §5, §6, §7

Structure (SMILES) | Binding Ki / Enzyme IC50 (GPCR [1]) [nM] | IC50 (Muscarinic M2 receptor) [nM] | Ki (Muscarinic M2 receptor) [nM] | Binding Ki / Enzyme IC50 (GPCR [2]) [nM] | Binding Ki / Enzyme IC50 (GPCR [3]) [nM] | Binding Ki / Enzyme IC50 (Transporter) [nM] | fraction unbound [4] | Binding Ki / Enzyme IC50 (GPCR [5]) [nM] | Binding Ki / Enzyme IC50 (Enzyme) [nM] | further results
Cc1cc(Nc2ncc(N3CCN(C)CC3)c(N3CCCC3)n2)ccn1 [compound 2] | 8420 | 1600 | 1100 | > 100000 | 30450 | 31450 | 0.402 | 4735 | > 100000 | Selectivity ratio for M2 (IC50 / blood Cmin at ED90 in the Pf/SCID model) (Muscarinic M2 receptor): < 1
Cc1nc(Nc2ncc(N3CCN(C)[C@H](C)C3)c(Nc3cc(C)n(C)n3)n2)cc(C2CC2)c1F [compound 12, (R)-N2-(4-cyclopropyl-5-fluoro-6-methylpyridin-2-yl)-N4-(1,5-dimethyl-1H-pyrazol-3-yl)-5-(3,4-dimethylpiperazin-1-yl)pyrimidine-2,4-diamine] | > 100000 | 2000 | 1050 | 2210 | 10900 | 10100 | 0.025 | > 100000 | > 100000 | IC50 (Dd2 PI4K Cpd 1): 7.1 nM; IC50 (Dd2): 3.5 nM; Predicted blood CL (Hepatocyte Clint, rat): 26 % LBF; Predicted blood CL (Hepatocyte Clint, rat; IVIVC from hepatocyte Clint): 18.8 mL/min/kg; hepatocyte CLint (Hepatocyte Clint, rat; rat, hepatocytes): 11.3 µL/min/1e6 cells; IC50 (Dd2-6R F4 D4): 81.6 nM; IC50 (Dd2-6R F2 B5; Plasmodium falciparum, DD2): 81 ± 17.9 nM; increase in IC50 compared with the parental Dd2 line (Dd2-6R F2 B5; compound 6-resistant Dd2-6R clones (five clones)): 3-6 fold; Plasma protein binding (% free) ([4]; Human): 2.5 % free; Protein binding (human free) ([4]; Human): 2.5%; reduction in free fraction ([4]; compound 12 versus compound 2): 10 fold; IC50 (Dd2-6R F2 C5): 70.1 nM; inhibition at 1 µM [6]: 16.5 ± 6.3%; Predicted blood CL (Hepatocyte Clint, dog): 38 % LBF; Predicted blood CL (Hepatocyte Clint, dog; IVIVC from hepatocyte Clint): 20.8 mL/min/kg; hepatocyte CLint (Hepatocyte Clint, dog; dog, hepatocytes): 9.3 µL/min/1e6 cells
